Measured values taken from patent publication EP1808178A1, “Composition comprising Astragalus radix extracts for treating prostate cancer” (Golden Biotechnology Corp., priority 2005, dated 2007).

Test system: human prostate cancer cell lines- LNCaP cells
Assay: In vitro mode adjunctive treatment activity assay with Taxol (MTT colorimetric cell survival)
Type: cell-based
Details: PCF1 concentration 0.0 µL/mL, i.e. Taxol (2nM) alone
Experimental: Utilize in vitro filter mode for human prostate cancer cell lines- LNCaP cells. Where human prostate cancer cell lines - LNCaP cells is being cultured in the culture medium which is supplemented by fetalbovine serum for 24 hours, and process cells by Taxol for 72 hours, and then change the culture medium so as to culture it in a new culture medium by adding assay sample for 72 hours, afterwards evaluate the cell survival rate by MIT colorimetric analysis method.
? The assay analysis of the compositions in accordance with the present invention in effect for suppressing the growth of human prostate cancer cells, wherein it is necessary to compute the cell survival rate for cells in each well of96-well microplate, afterwards evaluate the cancer cells survival rate by MIT colorimetric analysis method.
? MTT colorimetric analysis method: MTT is a kind of tertrazolium salt, with a full name of 3-[4, 5-Dimenthylthialzol-2-yl] 2, 5-diphenyltetrazoliumbromide, which is the yellow dye, capable to be absorbed by live cells and also be reduced to blue color formazan by succinate-tetrazoliumreductase in mitochondrion, which is commonly used for filtering the affection for matters to the growth and proliferation of cells.

## CC(=O)O[C@H]1C(=O)[C@@]2(C)[C@H]([C@H](OC(=O)c3ccccc3)[C@]3(O)C[C@H](OC(=O)[C@H](O)[C@@H](NC(=O)c4ccccc4)c4ccccc4)C(C)=C1C3(C)C)[C@]1(OC(C)=O)CO[C@@H]1C[C@@H]2O [Taxol]
  Cell Survival Rate (%): 56.4%
